Patent publication US6960614B2, “Oxygenated esters of 4-lodo phenylamino benzhydroxamic acids” (Warner-Lambert Company, priority 2000, dated 2005)

Tested on: MEK
Experiment: Cellular Assay for Measuring MEK Inhibition (inhibition of ERK phosphorylation in C26 cells, Western blot)
Format: cell-based, murine
Settings: for % Inhibition @ 1 μM / % Inhibition @ 10 μM / % Inhibition @ 0.1 μM: ERK phosphorylation in C26 cells; for IC50: inhibition of ERK phosphorylation in murine colon 26 (C26) carcinoma cells, determined graphically from dose response curve
Procedure: The evaluation of the compounds as MEK inhibitors was performed in an assay that measures their ability to inhibit phosphorylation of MAP kinase […]) in murine colon 26 (C26) carcinoma cells. Since ERK1 and ERK2 represent the only known substrates for MEK, measurement of inhibition of ERK phosphorylation in cells provides direct readout of cellular MEK inhibition by the compounds of the invention. Briefly, the assay involves treating exponentially growing C26 cells with varying concentrations of the test compound (or vehicle control) for […] at 37° C. Cells are then rinsed free of compound/vehicle and lysed in a solution containing 70 mM NaCl, 50 mM glycerol phosphate, 10 mM HEPES, pH 7.4, 1% Triton X-100, 1 mM Na3VO4, 100 μM PMSF, 10 μM leupeptin and 10 μM pepstatin. Supernatants are then subjected to gel electrophoresis and Western blotting using a primary antibody recognizing dually phosphorylated ERK1 and ERK2. To evaluate total MAPK levels, blots were subsequently ‘stripped’ and re-probed with a 1:1 mixture of polyclonal antibodies recognizing unphosphorylated ERK1 and ERK2.

Structure (SMILES) | % Inhibition @ 1 μM [%] | % Inhibition @ 10 μM [%] | % Inhibition @ 0.1 μM [%] | IC50 [nM]
O=C(NOCC(O)C(F)(F)F)c1cc(Cl)c(F)c(F)c1Nc1ccc(F)cc1F (centres unmarked) [Example 211, 5-Chloro-2-(2,4-difluoro-phenylamino)-3,4-difluoro-N-(3,3,3-trifluoro-2-hydroxy-propoxy)-benzamide] | 35 | 71.9 |  | 
CC(O)CONC(=O)c1ccc(F)c(F)c1Nc1ccc(Cl)cc1F (centres unmarked) [Example 168, 2-(4-Chloro-2-fluoro-phenylamino)-3,4-difluoro-N-(2-hydroxy-propoxy)-benzamide] | 89.5 |  | 48.8 | 
O=C(NOCCCO)c1ccc(F)c(F)c1Nc1ccc(I)cc1F [Example 32, 3,4-Difluoro-2-(2-fluoro-4-iodo-phenylamino)-N-(3-hydroxy-propoxy)-benzamide] |  |  |  | 4.4
O=C(NOCC(O)CO)c1cc(F)c(F)c(F)c1Nc1ccc(I)cc1Cl (centres unmarked) [Example 87, 2-(2-Chloro-4-iodo-phenylamino)-N-(2,3-dihydroxy-propoxy)-3,4,5-trifluoro-benzamide] |  |  |  | 25
O=C(NOCC(O)CN1CCOCC1)c1cc(F)c(F)cc1Nc1ccc(I)cc1F (centres unmarked) [Example 153, 4,5-Difluoro-2-(2-fluoro-4-iodo-phenylamino)-N-(2-hydroxy-3-morpholin-4-yl-propoxy)-benzamide] | 89.5 |  | 13.9 | 
Cc1cc(I)ccc1Nc1c(C(=O)NOCC(C)O)cc(Br)c(F)c1F (centres unmarked) [Example 159, 5-Bromo-3,4-difluoro-N-(2-hydroxy-propoxy)-2-(4-iodo-2-methyl-phenylamino)-benzamide] | 100 |  | 88.4 | 
O=C(NOCCO)c1ccc(F)cc1Nc1ccc(I)cc1Cl [Example 4, 2-(2-Chloro-4-iodo-phenylamino)-4-fluoro-N-(2-hydroxy-ethoxy)-benzamide] |  |  |  | 2
COCCOCCONC(=O)c1ccc(F)c(F)c1Nc1ccc(I)cc1Cl [Example 207, 2-(2-Chloro-4-iodo-phenylamino)-3,4-difluoro-N-[2-(2-methoxy-ethoxy)-ethoxy]-benzamide] |  |  |  | 212
COCC(O)CONC(=O)c1cc(Cl)c(F)c(F)c1Nc1ccc(F)cc1F (centres unmarked) [Example 227, 5-Chloro-2-(2,4-difluoro-phenylamino)-3,4-difluoro-N-(2-hydroxy-3-methoxy-propoxy)-benzamide] | 24.2 | 63 |  | 
Cc1cc(I)ccc1Nc1c(C(=O)NOCC(C)(C)O)cc(Cl)c(F)c1F [Example 176, 5-Chloro-3,4-difluoro-N-(2-hydroxy-2-methyl-propoxy)-2-(4-iodo-2-methyl-phenylamino)-benzamide] | 87.7 |  | 14.1 | 
O=C(NOCC1(CO)CC1)c1ccc(F)c(F)c1Nc1ccc(I)cc1F [Example 218, 3,4-Difluoro-2-(2-fluoro-4-iodo-phenylamino)-N-(1-hydroxymethyl-cyclopropylmethoxy)-benzamide] | 96.9 |  | 87 | 
CC(O)CONC(=O)c1cc(F)c(F)cc1Nc1ccc(I)cc1F (centres unmarked) [Example 169, 4,5-Difluoro-2-(2-fluoro-4-iodo-phenylamino)-N-(2-hydroxy-propoxy)-benzamide] |  |  |  | 14
CC(C)(O)CONC(=O)c1cc(Cl)c(F)c(F)c1Nc1ccc(F)cc1F [Example 180, 5-Chloro-2-(2,4-difluoro-phenylamino)-3,4-difluoro-N-(2-hydroxy-2-methyl-propoxy)-benzamide] | 34 | 58.6 |  | 
CCC(O)CONC(=O)c1ccc(F)c(F)c1Nc1ccc(I)cc1Cl (centres unmarked) [Example 104, 2-(2-Chloro-4-iodo-phenylamino)-3,4-difluoro-N-(2-hydroxy-butoxy)-benzamide] |  |  |  | 24
CN(OCCO)C(=O)c1ccc(F)cc1Nc1ccc(I)cc1Cl [Example 81, 2-(2-Chloro-4-iodo-phenylamino)-4-fluoro-N-(2-hydroxy-ethoxy)-N-methyl-benzamide] |  |  |  | 134
Cc1cc(I)ccc1Nc1c(C(=O)NOCC(C)O)cc(F)c(F)c1F (centres unmarked) [Example 157, 3,4,5-Trifluoro-N-(2-hydroxy-propoxy)-2-(4-iodo-2-methyl-phenylamino)-benzamide] | 91.5 |  | 50.7 | 
O=C(NOCC(O)COc1ccccc1)c1cc(Cl)c(F)c(F)c1Nc1ccc(I)cc1F (centres unmarked) [Example 192, 5-Chloro-3,4-difluoro-2-(2-fluoro-4-iodo-phenylamino)-N-(2-hydroxy-3-phenoxy-propoxy)-benzamide] |  |  |  | 7
O=C(NOCC(O)COc1ccccc1)c1cc(Br)c(F)c(F)c1Nc1ccc(I)cc1Cl (centres unmarked) [Example 186, 5-Bromo-2-(2-chloro-4-iodo-phenylamino)-3,4-difluoro-N-(2-hydroxy-3-phenoxy-propoxy)-benzamide] |  |  |  | 34
O=C(NOCC(O)COc1ccccc1)c1ccc(F)c(F)c1Nc1ccc(Cl)cc1F (centres unmarked) [Example 196, 2-(4-Chloro-2-fluoro-phenylamino)-3,4-difluoro-N-(2-hydroxy-3-phenoxy-propoxy)-benzamide] | 82.8 |  | 10.2 | 
O=C(NOCC1(CO)CC1)c1cc(Br)c(F)c(F)c1Nc1ccc(I)cc1F [Example 220, 5-Bromo-3,4-difluoro-2-(2-fluoro-4-iodo-phenylamino)-N-(1-hydroxymethyl-cyclopropylmethoxy)-benzamide] | 88.8 |  | 35.4 | 
Cc1cc(I)ccc1Nc1c(C(=O)NOCCNc2ccccc2)ccc(F)c1F [Example 234, 3,4-Difluoro-2-(4-iodo-2-methyl-phenylamino)-N-(2-phenylamino-ethoxy)-benzamide] |  |  |  | 54
Cc1cc(I)ccc1Nc1c(C(=O)NOCC(C)(C)O)ccc(F)c1F [Example 174, 3,4-Difluoro-N-(2-hydroxy-2-methyl-propoxy)-2-(4-iodo-2-methyl-phenylamino)-benzamide] |  |  |  | 100
Cc1cc(I)ccc1Nc1c(C(=O)NOCC(O)CN2CCOCC2)cc(F)c(F)c1F (centres unmarked) [Example 146, 3,4,5-Trifluoro-N-(2-hydroxy-3-morpholin-4-yl-propoxy)-2-(4-iodo-2-methyl-phenylamino)-benzamide] | 40.5 |  | 0 | 
O=C(NOCC1CC1CO)c1cc(Cl)c(F)c(F)c1Nc1ccc(F)cc1F (centres unmarked) [Example 214, 5-Chloro-2-(2,4-difluoro-phenylamino)-3,4-difluoro-N-(2-hydroxymethyl-cyclopropylmethoxy)-benzamide] | 15.4 | 38.2 |  | 
O=C(NOC[C@H](O)CO)c1cc(Cl)c(F)c(F)c1Nc1ccc(I)cc1F [Example 53] |  |  |  | 1.2
O=C(NOCC1CC1CO)c1ccc(F)c(F)c1Nc1ccc(F)cc1F (centres unmarked) [Example 215, 2-(2,4-Difluoro-phenylamino)-3,4-difluoro-N-(2-hydroxymethyl-cyclopropylmethoxy)-benzamide] | 11.7 | 84.8 |  | 
Cc1cc(I)ccc1Nc1c(C(=O)NOCCNc2ccccc2)cc(F)c(F)c1F [Example 230, 3,4,5-Trifluoro-2-(4-iodo-2-methyl-phenylamino)-N-(2-phenylamino-ethoxy)-benzamide] |  |  |  | 51
